# Measurements as given in BindingDB's records for doi:10.1021/jm970333f (University of Catania, 1998).
# pKi: −log10 of the molar value.
# Experiment: Inhibition of [3H]pentazocine binding to sigma-1 sites in guinea pig brain membranes
row,SMILES,pKi
1,"C[C@@H]1[C@@H]2Cc3ccc(O)cc3[C@]1(C)CCN2CCN1CCCCC1 [(2S,6R,11S)-6,11-Dimethyl-3-(2-piperidin-1-yl-ethyl)-1,2,3,4,5,6-hexahydro-2,6-methano-benzo[d]azocin-8-ol]",8.02
2,"C[C@@H]1[C@@H]2Cc3ccc(O)cc3[C@]1(C)CCN2CCN1CCCCCC1 [(2S,6R,11S)-3-(2-Azepan-1-yl-ethyl)-6,11-dimethyl-1,2,3,4,5,6-hexahydro-2,6-methano-benzo[d]azocin-8-ol]",7.70
3,"CCN(CC)CCN1CC[C@@]2(C)c3cc(O)ccc3C[C@H]1[C@H]2C [(2S,6R,11S)-3-(2-Diethylamino-ethyl)-6,11-dimethyl-1,2,3,4,5,6-hexahydro-2,6-methano-benzo[d]azocin-8-ol]",7.82
4,"C[C@@H]1[C@@H]2Cc3ccc(O)cc3[C@]1(C)CCN2CCN(C)c1ccccc1 [(2S,6R,11S)-6,11-Dimethyl-3-[2-(methyl-phenyl-amino)-ethyl]-1,2,3,4,5,6-hexahydro-2,6-methano-benzo[d]azocin-8-ol]",8.25
5,"C[C@@H]1[C@@H]2Cc3ccc(O)cc3[C@]1(C)CCN2CCNCc1ccccc1 [(2S,6R,11S)-3-(2-Benzylamino-ethyl)-6,11-dimethyl-1,2,3,4,5,6-hexahydro-2,6-methano-benzo[d]azocin-8-ol]",7.52
6,"C[C@@H]1[C@@H]2Cc3ccc(O)cc3[C@]1(C)CCN2CCN1CCCC1 [(2S,6R,11S)-6,11-Dimethyl-3-(2-pyrrolidin-1-yl-ethyl)-1,2,3,4,5,6-hexahydro-2,6-methano-benzo[d]azocin-8-ol]",8.13
7,"C[C@@H]1[C@@H]2Cc3ccc(O)cc3[C@]1(C)CCN2CCNC1CCCCC1 [(2S,6R,11S)-3-(2-Cyclohexylamino-ethyl)-6,11-dimethyl-1,2,3,4,5,6-hexahydro-2,6-methano-benzo[d]azocin-8-ol]",7.38
8,"C[C@@H]1[C@@H]2Cc3ccc(O)cc3[C@]1(C)CCN2CCN1CCOCC1 [(2S,6R,11S)-6,11-Dimethyl-3-(2-morpholin-4-yl-ethyl)-1,2,3,4,5,6-hexahydro-2,6-methano-benzo[d]azocin-8-ol]",7.89
9,C=CCN1CCC2c3cc(O)ccc3CC1C2C (configuration not stated) [SK&F-10047],6.77
10,"CCN(CCN1CC[C@@]2(C)c3cc(O)ccc3C[C@H]1[C@H]2C)c1ccccc1 [(2S,6R,11S)-3-[2-(Ethyl-phenyl-amino)-ethyl]-6,11-dimethyl-1,2,3,4,5,6-hexahydro-2,6-methano-benzo[d]azocin-8-ol]",7.38
11,"C[C@@H]1[C@@H]2Cc3ccc(O)cc3[C@]1(C)CCN2CCN(C)C [(2S,6R,11S)-3-(2-Dimethylamino-ethyl)-6,11-dimethyl-1,2,3,4,5,6-hexahydro-2,6-methano-benzo[d]azocin-8-ol]",7.70
12,"C[C@@H]1[C@@H]2Cc3ccc(O)cc3[C@]1(C)CCN2CCNc1ccccc1 [(2S,6R,11S)-6,11-Dimethyl-3-(2-phenylamino-ethyl)-1,2,3,4,5,6-hexahydro-2,6-methano-benzo[d]azocin-8-ol]",8.23
